In patent publication US12630600B2 (MEDIMMUNE LIMITED, priority 2022, dated 2026):
Where two headings read alike, the source gives them in different places. Blank lines part the entries; values can stand above or below the molecule they belong to. Starred links: 1 amine or outer side, 2 acyl side, 3 side chain; linkers in the order of their positions; H or OH if unused. Non-standard residues stand in square brackets, D forms with d. Residues, ends and D or L forms follow the SMILES beside them. Groups on a side chain read outwards from the residue. No end group written: not given here. *: point of attachment. C20 diacid = O=C(O)CCCCCCCCCCCCCCCCCCC(=O)*; C18 diacid = O=C(O)CCCCCCCCCCCCCCCCC(=O)*; γGlu = O=C(O)[C@H](CCC(=O)[*:2])N[*:1]; αMeF = C[C@](N)(Cc1ccccc1)C(=O)O; AEEA = NCCOCCOCC(=O)O; Aib = CC(C)(N)C(=O)O

Columns and labels:
[1] = cynomolgus monkey, in vivo, 20 nmol/kg
Text: (§1) Selected test peptides (n=8) were profiled for pharmacokinetic (PK) properties in the mouse after single intravenous (i.v.) or subcutaneous (s.c.) dose. A subset (n=4) meeting the acceptance criteria was subsequently profiled in the dog (single i.v. dose) and non-human primate (single i.v. and s.c. dose). […] Low-binding plasticware containers were used during preparation and sample handling to avoid non-specific binding.
Non-human primate: PK was studied in non-naïve male cynomolgus monkeys. After dosing, PK samples were collected from the femoral vein. Blood of each sample was transferred into plastic micro centrifuge tubes containing EDTA-K2, inverted several times for proper mixing of contents and then placed on wet ice.
(§2) Samples analysis: Samples were analyzed by LC-MS/MS. Calibration standards were injected at the beginning and end of each batch and the determined concentration for each prepared standard was used to construct a calibration curve. Plasma and dose aliquot sample concentrations were determined from the plasma calibration curve.
Data analysis: Plasma concentration data was analyzed by non-compartmental analysis (NCA) using Phoenix Winnonlin v. 8.3.3.33. […] Subcutaneous bioavailability was calculated as the ratio AUC(s.c.)0-inf/AUC(i.v.)0-inf. […]

[2] = dog, in vivo, iv, 10 nmol/kg
Text: as §1
Blood of each sample was transferred into plastic micro centrifuge tubes containing EDTA-K2, inverted several times for proper mixing of contents and then placed on wet ice.
as §2
Data analysis: Plasma concentration data was analyzed by non-compartmental analysis (NCA) using Phoenix Winnonlin v. 8.3.3.33. Linear trapezoidal rule was used for increasing values and log trapezoidal rule was used for decreasing values, applying uniform weighting for lambda_z calculations. Subcutaneous bioavailability was calculated as the ratio AUC(s.c.)0-inf/AUC(i.v.)0-inf. Reported values (Table 18) represent the mean of the individual estimates.

neprilysin = molecular target: T1, neprilysin (Homo sapiens, UniProt P08473); experiment: Proteolytic resistance to neprilysin; format: in vitro ADME; settings: pH 8.3
T1 construct: purchased R&D Systems 1182-ZNC-010
Outline: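 Peptide (~250 µM stock) was mixed 1:1 with recombinant neprilysin (100 µg/mL stock) in Tris/NaCl/NaHCO3 buffer, pH 8.3, at 37 °C. Aliquots taken at 0, 30 min, 1, 2, 4 and 24 h were TFA-quenched. Intact peptide remaining was estimated by RP-HPLC peak area at 210 nm.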

[3] = test system: T2, porcine pancreatic pepsin; experiment: Proteolytic resistance to FasSSGF containing porcine pancreatic pepsin; format: in vitro ADME; settings: pig, simulated gastric fluid
T2 construct: purchased Sigma P7012
Experimental: (§3) Lyophilized porcine pancreatic pepsin (Sigma: P7012) was reconstituted to 0.5 mg/mL (˜2500 units/mL) in freshly prepared FasSSGF (Biorelevant media) to give the enzyme stock solution. Peptide stock solution was prepared to a concentration of 250 μM (˜1.0 mg/mL) in FasSSGF. 200 μL ([…], ˜250 units) of pepsin stock solution was added to 200 μL of peptide solution (1.0 mg/mL, ˜100 μg of peptide, ˜25 nmoles) and the mixture was co-incubated in a temperature-regulated incubator at 37° C. for the duration of the experiment. 30 μL aliquot of the peptide-enzyme mixture was periodically withdrawn (t=0, 5, 10, 15, and 30 min) and quenched immediately by addition of 80 μL of 0.1 M ammonium bicarbonate solution in water/acetonitrile (4:1, pH 8) to arrest proteolytic activity. 30 μL aliquot was analyzed by analytical RP-HPLC. Analytical RP-HPLC method: Agilent Polaris C8-A column (4.6×100 mm, 3 micron) eluted with a linear binary gradient of 10-90°/MeCN (0.1% TFA v/v) in water (0.1% TFA v/v) over either 10 or 15 mins at 1.5 mL min-1 at 40° C. with detection by UV absorption at 210 nm. Manual integration (AUC) allowed estimation of remaining intact peptide over the time course of the experiment.

wildtype (WT) mice = experiment: Glucose change in wildtype mice; format: in vivo, mouse; settings: s.c., 1.5 nmol/kg, somatostatin pretreatment 30 min prior to cpd
Outline: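 Chow-fed wildtype mice, 8-14 weeks old, n=4-8/group, fasted 2 h before peptide injection, in some studies after octreotide 10 mg/kg 30 min before dosing. Blood glucose by glucometer at −30, 0, 30, 60, 120, 180, 240 and 360 min; mice reused up to 3 times with ≥1-week washout.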

Male C57Bl/6 mice = experiment: Mouse acute food intake study; format: in vivo; settings: s.c., dose 10 nmol/kg, food intake at 24 h vs vehicle
Experimental: Male C57Bl/6 mice obtained from Jackson Laboratories or Charles River at 8-9 weeks of age and were housed one per cage in BioDaq (Research Diets) cages. Mice were placed on Alpha Dri bedding, standard chow diet (Envigo, 2018) and given water pouches. Mice were allowed to acclimate for 1-2 weeks. Body weight was measured to ensure appropriate acclimation. After acclimation, mice were sham dosed a minimum of 2 times prior to initiation of food intake study. On study day, mice were placed in clean cage bottoms, weighed, and fasted for 6-8 hours. Mice were sorted into groups based on average 24-hour food intake data and body weight. 1-2 hours prior to lights out, mice were dosed subcutaneously with one vehicle or test peptide dissolved in an appropriate vehicle at 5 mL/kg. Mice were left undisturbed and allowed access to food and water for 48 hours. Automated food intake was monitored in the BioDaq system was monitored during this time. Discrete food intake data was exported into MS Excel from which cumulative food intake data was generated and analyzed.

Pancreatin = experiment: Proteolytic resistance to fasted-state simulated intestinal fluid (FasSSIF/Pancreatin); format: in vitro ADME; settings: 0 min, 37° C.
Experimental: A fresh suspension of FasSSIF/P (Fasted-State Simulated Intestinal Fluid+USP Pancreatin®) was prepared according to that described by Galia, Nicolaides, Hörter, Löbenberg, Reppas and Dressman: Pharm. Res. 15 (1998) 698-70.5, and USP XL requirements. The resulting preparation was used immediately without storage.
Peptide for evaluation (1.0 mg) was dissolved in pre-warmed FasSSIF without Pancreatin® (200 μL). To this fresh FasSSIF/Pancreatin® (100 μL) was added to initiate potential proteolysis. Following momentary vortexing of the reaction tube the mixture was incubated at 37° C. in a thermostatic water bath for the duration of the experiment. 25 μL aliquot of the co-incubated peptide-enzyme mixture was periodically withdrawn (t=0, 5, 10 15 and 30 min) and quenched immediately by addition to a solution of 10% TFA in 1:1 water/acetonitrile (75 μL) to arrest proteolytic activity. Quenched samples were centrifuged (7800 RPM, 3 mins) to pellet solids and 10 μL aliquots of the supernatant solution were analyzed using analytical RP-HPLC as follows: Analytical RP-HPLC method: Agilent Polaris C8-A column (4.6×100 mm, 3 micron) eluted with a linear binary gradient of 10-90% MeCN (0.1% TFA v/v) in water (0.1% TFA v/v) over either 10 or 15 mins at 1.5 mL min^−1 at 40° C. with detection by UV absorption at 210 nm. […]

[4] = molecular target: T3, porcine pancreatic pepsin (Sus scrofa, UniProt P00791); experiment: Proteolytic resistance to FasSSGF containing porcine pancreatic pepsin; format: in vitro ADME; settings: 0 min, FasSSGF with pepsin, 37° C.
T3 construct: purchased Sigma P7012
Experimental: as §3

human GLP-1 receptor [5] = molecular target: human GLP-1 receptor (human, UniProt P43220); experiment: cell-based or functional assay
human glucagon receptor [6] = molecular target: human glucagon receptor (human, UniProt P47871); experiment: cell-based or functional assay
human GLP-1 receptor [7] = molecular target: human GLP-1 receptor (human, UniProt P43220); experiment: cell-based or functional assay; remark: listed apart in the source
human glucagon receptor [8] = molecular target: human glucagon receptor (human, UniProt P47871); experiment: cell-based or functional assay; remark: listed apart in the source

T1 sequence (P08473 whole entry): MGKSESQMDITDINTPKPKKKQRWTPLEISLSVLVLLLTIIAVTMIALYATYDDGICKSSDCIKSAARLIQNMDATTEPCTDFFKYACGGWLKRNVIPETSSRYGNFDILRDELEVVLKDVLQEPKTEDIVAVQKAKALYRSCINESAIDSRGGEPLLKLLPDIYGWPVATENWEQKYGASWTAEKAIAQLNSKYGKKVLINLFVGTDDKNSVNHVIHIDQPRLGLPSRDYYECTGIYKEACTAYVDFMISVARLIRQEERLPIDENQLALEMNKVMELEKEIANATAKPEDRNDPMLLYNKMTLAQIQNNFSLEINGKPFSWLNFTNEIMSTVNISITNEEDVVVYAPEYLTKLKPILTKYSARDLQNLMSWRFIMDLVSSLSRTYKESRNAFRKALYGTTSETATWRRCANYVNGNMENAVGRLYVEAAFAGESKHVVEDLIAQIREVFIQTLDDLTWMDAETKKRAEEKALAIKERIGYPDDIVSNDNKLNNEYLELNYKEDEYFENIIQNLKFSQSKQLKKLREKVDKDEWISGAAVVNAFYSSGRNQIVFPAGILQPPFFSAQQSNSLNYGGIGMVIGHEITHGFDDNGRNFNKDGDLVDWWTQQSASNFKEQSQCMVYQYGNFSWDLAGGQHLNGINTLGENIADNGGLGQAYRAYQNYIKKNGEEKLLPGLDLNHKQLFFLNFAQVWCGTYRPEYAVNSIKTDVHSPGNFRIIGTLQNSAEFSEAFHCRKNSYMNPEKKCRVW
T3 sequence (P00791 60-385): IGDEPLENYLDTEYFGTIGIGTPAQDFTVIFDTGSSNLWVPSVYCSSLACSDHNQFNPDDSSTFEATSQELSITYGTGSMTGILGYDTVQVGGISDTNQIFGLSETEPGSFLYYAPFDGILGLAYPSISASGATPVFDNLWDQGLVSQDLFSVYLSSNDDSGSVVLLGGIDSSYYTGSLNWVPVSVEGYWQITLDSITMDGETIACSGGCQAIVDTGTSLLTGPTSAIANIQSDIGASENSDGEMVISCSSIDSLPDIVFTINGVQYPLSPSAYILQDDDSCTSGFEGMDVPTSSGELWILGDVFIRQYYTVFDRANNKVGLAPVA

Molecule: CC[C@H](C)[C@H](NC(=O)[C@H](Cc1c[nH]c2ccccc12)NC(=O)[C@H](CCC(=O)O)NC(=O)[C@@H](NC(=O)[C@](C)(Cc1ccccc1)NC(=O)[C@H](CC(=O)O)NC(=O)[C@H](CCC(N)=O)NC(=O)[C@H](C)NC(=O)[C@H](C)NC(=O)[C@H](CCCCNC(=O)CC[C@H](NC(=O)CCCCCCCCCCCCCCCCC(=O)O)C(=O)O)NC(=O)[C@H](CO)NC(=O)[C@H](CC(=O)O)NC(=O)[C@H](CC(C)C)NC(=O)[C@](C)(Cc1ccccc1)NC(=O)[C@H](CCCCN)NC(=O)[C@H](CO)NC(=O)[C@@H](NC(=O)[C@H](CC(=O)O)NC(=O)[C@H](CO)NC(=O)[C@@H](NC(=O)[C@](C)(Cc1ccccc1)NC(=O)[C@H](CO)NC(=O)CNC(=O)[C@H](Cc1c[nH]cn1)NC(=O)C(C)(C)NC(=O)[C@@H](N)Cc1c[nH]cn1)[C@@H](C)O)C(C)C)C(C)C)C(=O)N[C@@H](C)C(=O)N[C@@H](CC(N)=O)C(=O)N[C@H](C(N)=O)[C@@H](C)O [Peptide 7] (H-H[Aib]HGS[αMeF]TSDVSK[αMeF]LDSK([γGlu-C18 diacid])AAQD[αMeF]VEWIANT-NH2; N-terminus assumed)
- remaining at 10 min, 125 µM [3]: 60%
- WT % glucose change 120 min (wildtype (WT) mice): 5.4%
- 24 hr % Vehicle Food Intake (Male C57Bl/6 mice): 55.0%
- % intact peptide over time, Neprilysin (neprilysin): 100%

Molecule: CC[C@H](C)[C@H](NC(=O)[C@H](Cc1ccccc1)NC(=O)[C@H](CCC(=O)O)NC(=O)[C@H](CCCCNC(=O)COCCOCCNC(=O)COCCOCCNC(=O)CC[C@H](NC(=O)CCCCCCCCCCCCCCCCC(=O)O)C(=O)O)NC(=O)[C@H](C)NC(=O)[C@H](C)NC(=O)[C@H](CCC(N)=O)NC(=O)CNC(=O)[C@H](CCC(=O)O)NC(=O)[C@H](CC(C)C)NC(=O)[C@H](Cc1ccc(O)cc1)NC(=O)[C@H](CO)NC(=O)[C@H](CO)NC(=O)[C@@H](NC(=O)[C@H](CC(=O)O)NC(=O)[C@H](CO)NC(=O)[C@@H](NC(=O)[C@H](Cc1ccccc1)NC(=O)[C@@H](NC(=O)CNC(=O)[C@H](CCC(=O)O)NC(=O)C(C)(C)NC(=O)[C@@H](N)Cc1cnc[nH]1)[C@@H](C)O)[C@@H](C)O)C(C)C)C(=O)N[C@@H](C)C(=O)N[C@@H](Cc1c[nH]c2ccccc12)C(=O)N[C@@H](CC(C)C)C(=O)N[C@H](C(=O)N[C@@H](CCCNC(=N)N)C(=O)NCC(=O)N[C@@H](CCCNC(=N)N)C(=O)NCC(=O)O)C(C)C [semaglutide, reference compound]
- % intact peptide over time (min), FasSSIF (Pancreatin): 100%
- % intact peptide over time (min), FasSSGF [4]: 100%

Molecule: H[Aib]QGTFTSDVSK[αMeF]LDTK([AEEA-AEEA-γGlu-C18 diacid])RAQDFVRWLLEAG-OH [Peptide 186]
- hGLP-1R EC50 (pM), cAMP production (HTRF) (human GLP-1 receptor [5]): 44.9 pM
- hGluc-R EC50 (pM), cAMP production (HTRF) (human glucagon receptor [6]): 101 pM

Second part, the molecule after the results:

- bioavailability [1]: 75%
- half-life ([1]; iv): 5.42 days
- half-life [2]: 3.58 days
- % intact peptide over time, Neprilysin (neprilysin): 100%
Molecule: CC[C@H](C)[C@H](NC(=O)C(C)(C)NC(=O)[C@H](CCC(N)=O)NC(=O)[C@@H](NC(=O)[C@](C)(Cc1ccccc1)NC(=O)[C@H](CC(=O)O)NC(=O)[C@H](CCCCNC(=O)COCCOCCNC(=O)COCCOCCNC(=O)CC[C@H](NC(=O)CC[C@H](NC(=O)CCCCCCCCCCCCCCCCCCC(=O)O)C(=O)O)C(=O)O)NC(=O)[C@H](C)NC(=O)[C@H](C)NC(=O)[C@H](CCCNC(=N)N)NC(=O)[C@H](CO)NC(=O)[C@H](CC(=O)O)NC(=O)[C@H](CC(C)C)NC(=O)[C@](C)(Cc1ccccc1)NC(=O)[C@H](CCCCN)NC(=O)[C@H](CO)NC(=O)[C@@H](NC(=O)[C@H](CC(=O)O)NC(=O)[C@H](CO)NC(=O)[C@@H](NC(=O)[C@](C)(Cc1ccccc1)NC(=O)[C@H](CO)NC(=O)CNC(=O)[C@H](Cc1c[nH]cn1)NC(=O)C(C)(C)NC(=O)[C@@H](N)Cc1c[nH]cn1)[C@@H](C)O)C(C)C)C(C)C)C(=O)N[C@@H](C)C(=O)N[C@@H](CC(N)=O)C(=O)N[C@H](C(N)=O)[C@@H](C)O [Peptide 229, H-Aib-H-G-S-αMePhe-T-S-D-V-S-K-αMePhe-L-D-S-R-A-A-K(ε-(O2Oc)-(O2Oc)-γE-γE-C20diacid)20-D-αMePhe-V-Q-Aib-I-A-N-T-amide] (H-H[Aib]HGS[αMeF]TSDVSK[αMeF]LDSRAAK([AEEA-AEEA-γGlu-γGlu-C20 diacid])D[αMeF]VQ[Aib]IANT-NH2)

- hGLP-1R EC50 (pM) (human GLP-1 receptor [7]): 458 pM
- hGluc-R EC50 (pM) (human glucagon receptor [8]): 7310 pM
Molecule: H[Aib]HGS[αMeF]TSDVSKKLDSRAAQD[αMeF]VQ[Aib]IANT-NH2 (not fully specified (residue 13)) [Peptide 406 of Table 10]
